Data as given in ChEMBL document CHEMBL5329212, “In situ click chemistry-based discovery of 1,2,3-triazole-derived diarylpyrimidines as novel HIV-1 NNRTIs by exploiting the tolerant region I in binding pocket” (Bioorg Med Chem, 2023).
pEC50, pIC50: −log10 of the molar value. Blank lines part the entries; values can stand above or below the compound they belong to.

What was measured:
[1] = target: Human immunodeficiency virus type 1 reverse transcriptase (Human immunodeficiency virus 1) (UniProt Q72547); test: Inhibition of HIV-1 reverse transcriptase at 0.267 uM incubated for 1 hrs in presence of biotin-labeled dNTPs by ELISA assay relative to control
[2] = target: Human immunodeficiency virus type 1 reverse transcriptase (Human immunodeficiency virus 1, UniProt Q72547); test: Inhibition of HIV-1 reverse transcriptase incubated for 1 hrs in presence of biotin-labeled dNTPs by ELISA assay
[3] = test system: Human immunodeficiency virus 1; test: Antiviral activity against wild type HIV-1 IIIB infected in human MT4 cells assessed as protection against virus-induced cytopathic effect measured after 5 days by MTT assay; assay type: functional, organism-based; settings: Human immunodeficiency virus 1, IIIB, MT4, 120 h
[4] = test system: Human immunodeficiency virus 1; test: Antiviral activity against HIV-1 harboring RT L100I mutant infected in human MT4 cells assessed as protection against virus-induced cytopathic effect measured after 5 days by MTT assay; assay type: functional, organism-based; settings: Human immunodeficiency virus 1, MT4, 120 h
[5] = test system: Human immunodeficiency virus 1; test: Antiviral activity against HIV-1 harboring RT K103N mutant infected in human MT4 cells assessed as protection against virus-induced cytopathic effect measured after 5 days by MTT assay; assay type: functional, organism-based; settings: Human immunodeficiency virus 1, MT4, 120 h
[6] = test system: Human immunodeficiency virus 1; test: Antiviral activity against HIV-1 harboring RT Y181C mutant infected in human MT4 cells assessed as protection against virus-induced cytopathic effect measured after 5 days by MTT assay; assay type: functional, organism-based; settings: Human immunodeficiency virus 1, MT4, 120 h
[7] = test system: Human immunodeficiency virus 1; test: Antiviral activity against HIV-1 harboring RT Y188L mutant infected in human MT4 cells assessed as protection against virus-induced cytopathic effect measured after 5 days by MTT assay; assay type: functional, organism-based; settings: Human immunodeficiency virus 1, MT4, 120 h
[8] = test system: Human immunodeficiency virus 1; test: Antiviral activity against HIV-1 harboring RT E138K mutant infected in human MT4 cells assessed as protection against virus-induced cytopathic effect measured after 5 days by MTT assay; assay type: functional, organism-based; settings: Human immunodeficiency virus 1, MT4, 120 h
[9] = test system: Human immunodeficiency virus 1; test: Antiviral activity against HIV-1 harboring RT F227L/V106A double mutant infected in human MT4 cells assessed as protection against virus-induced cytopathic effect measured after 5 days by MTT assay; assay type: functional, organism-based; settings: Human immunodeficiency virus 1, MT4, 120 h
[10] = test system: Human immunodeficiency virus 1; test: Antiviral activity against HIV-1 harboring RT RES056 mutant infected in human MT4 cells assessed as protection against virus-induced cytopathic effect measured after 5 days by MTT assay; assay type: functional, organism-based; settings: Human immunodeficiency virus 1, MT4, 120 h
[11] = Cytotoxicity against human MT4 cells assessed as reduction in cell viability measured after 5 days by MTT assay; assay type: toxicity, cell-based; settings: time 5 day

SMILES: Cc1cc(C#N)cc(C)c1Oc1nc(Nc2ccc(-c3cn(Cc4ccc(Cl)cc4)nn3)cc2)nc2ccsc12
inhibition [1]: 44.7% | pIC50 [2]: 6.49 | pEC50 [3]: 6.26 | pEC50 [4]: 4.14 | pEC50 [5]: 5.95 | pEC50 [6]: 3.69 | pEC50 [7]: < 3.65 | pEC50 [8]: 5.97 | pEC50 [9]: 3.97 | pEC50 [10]: < 3.65 | CC50 at 120 h [11]: > 222 µM

SMILES: Cc1cc(C#N)cc(C)c1Oc1nc(Nc2ccc(-c3cn(Cc4cccc(C#N)c4)nn3)cc2)nc2ccsc12
inhibition [1]: 24.7%

SMILES: Cc1cc(C#N)cc(C)c1Oc1nc(Nc2ccc(-c3cn(CS(=O)(=O)c4ccccc4)nn3)cc2)nc2ccsc12
inhibition [1]: 25.6%

SMILES: Cc1cc(C#N)cc(C)c1Oc1nc(Nc2ccc(-c3cn(Cc4cccc([N+](=O)[O-])c4)nn3)cc2)nc2ccsc12
inhibition [1]: 0.9%

SMILES: Cc1cc(C#N)cc(C)c1Oc1nc(Nc2ccc(-c3cn([C@H]4C[C@@H](n5cc(C)c(=O)[nH]c5=O)O[C@@H]4CO)nn3)cc2)nc2ccsc12
inhibition [1]: 24.8%

SMILES: CCOC(=O)Cn1cc(-c2ccc(Nc3nc(Oc4c(C)cc(C#N)cc4C)c4sccc4n3)cc2)nn1
inhibition [1]: 31.2%

SMILES: Cc1cccc(Cn2cc(-c3ccc(Nc4nc(Oc5c(C)cc(C#N)cc5C)c5sccc5n4)cc3)nn2)c1
inhibition [1]: 21%

SMILES: Cc1cc(C#N)cc(C)c1Oc1nc(Nc2ccc(-c3cn(Cc4ccccc4[N+](=O)[O-])nn3)cc2)nc2ccsc12
inhibition [1]: 24.8%

SMILES: Cc1cc(C#N)cc(C)c1Oc1nc(Nc2ccc(-c3cn(-c4ccc(C(=O)O)cc4)nn3)cc2)nc2ccsc12
inhibition [1]: 38.2%

SMILES: Cc1cc(C#N)cc(C)c1Oc1nc(Nc2ccc(C#N)cc2)nc(N)c1Br [ETRAVIRINE]
inhibition [1]: 56.4% | pEC50 [4]: 8.00 | pEC50 [5]: 8.40 | pEC50 [8]: 7.70 | pEC50 [9]: 7.52 | pEC50 [10]: 7.15 | CC50 at 120 h [11]: > 461 µM

SMILES: COc1ccccc1Cn1cc(-c2ccc(Nc3nc(Oc4c(C)cc(C#N)cc4C)c4sccc4n3)cc2)nn1
inhibition [1]: 3.7%

SMILES: Cc1cc(C#N)cc(C)c1Oc1nc(Nc2ccc(-c3cn(CC(=O)Nc4ccc(Br)cc4)nn3)cc2)nc2ccsc12
inhibition [1]: 4.1%

SMILES: Cc1ccnc2c1NC(=O)c1cccnc1N2C1CC1 [NEVIRAPINE]
pEC50 [3]: 7.00 | pEC50 [4]: 5.84 | pEC50 [5]: 5.31 | pEC50 [6]: 5.25 | pEC50 [7]: < 3.02 | pEC50 [8]: 6.89 | pEC50 [9]: < 3.02 | pEC50 [10]: < 3.02 | CC50 at 120 h [11]: > 951 µM

Next, values leading:

inhibition [1]: 1.9%
SMILES: Cc1cc(C#N)cc(C)c1Oc1nc(Nc2ccc(-c3cn(CCc4ccsc4)nn3)cc2)nc2ccsc12

inhibition [1]: 17.3%
SMILES: Cc1cc(C#N)cc(C)c1Oc1nc(Nc2ccc(-c3cn(-c4ccc(C(=O)O)cc4Cl)nn3)cc2)nc2ccsc12

inhibition [1]: 4.9%
SMILES: Cc1cc(C)c(-n2cc(-c3ccc(Nc4nc(Oc5c(C)cc(C#N)cc5C)c5sccc5n4)cc3)nn2)c(C)c1

inhibition [1]: 21.8%
SMILES: Cc1cc(C#N)cc(C)c1Oc1nc(Nc2ccc(-c3cn(CC(=O)N4CCOCC4)nn3)cc2)nc2ccsc12

inhibition [1]: 24.9%
SMILES: Cc1cc(C#N)cc(C)c1Oc1nc(Nc2ccc(-c3cn(C[S+]([O-])c4ccccc4)nn3)cc2)nc2ccsc12 (stereo not drawn)

inhibition [1]: 20%
SMILES: Cc1cc(C#N)cc(C)c1Oc1nc(Nc2ccc(-c3cn(-c4cnc5ccccc5c4)nn3)cc2)nc2ccsc12

inhibition [1]: 33.3%
SMILES: Cc1ccccc1Cn1cc(-c2ccc(Nc3nc(Oc4c(C)cc(C#N)cc4C)c4sccc4n3)cc2)nn1

inhibition [1]: 28.4%
SMILES: Cc1cc(C#N)cc(C)c1Oc1nc(Nc2ccc(-c3cn(Cc4cccc(Cl)c4)nn3)cc2)nc2ccsc12

inhibition [1]: 27.1%
SMILES: Cc1cc(C#N)cc(C)c1Oc1nc(Nc2ccc(-c3cn(CCc4ccccc4)nn3)cc2)nc2ccsc12

inhibition [1]: 23.4%
SMILES: Cc1cc(C#N)cc(C)c1Oc1nc(Nc2ccc(-c3cn(CC(=O)Nc4ccc(S(C)(=O)=O)cc4)nn3)cc2)nc2ccsc12

inhibition [1]: 29.7%
SMILES: Cc1cc(C#N)cc(C)c1Oc1nc(Nc2ccc(-c3cn(CC(=O)NC4CC4)nn3)cc2)nc2ccsc12
